Measurements: US11591323B2, “Muscarinic agonists as non-steroidal and non-opioid analgesics and methods of use thereof” (Barry University, priority 2019, dated 2023)
Several values for one entry are separate records, joined by “and”; a condition that tells them apart may be missing. Equal entries are not always repeated. Where two headings read alike, the source gives them in different places.

Columns and labels:
Set-up in all cases: host or cells: CHO cells, stably transfected
M2 muscarinic receptor [1] = target: T1, M2 muscarinic receptor (Homo sapiens, UniProt P08172); assay: [3H]NMS competition binding, M2 CHO membranes
T1 sequence (P08172 1-466): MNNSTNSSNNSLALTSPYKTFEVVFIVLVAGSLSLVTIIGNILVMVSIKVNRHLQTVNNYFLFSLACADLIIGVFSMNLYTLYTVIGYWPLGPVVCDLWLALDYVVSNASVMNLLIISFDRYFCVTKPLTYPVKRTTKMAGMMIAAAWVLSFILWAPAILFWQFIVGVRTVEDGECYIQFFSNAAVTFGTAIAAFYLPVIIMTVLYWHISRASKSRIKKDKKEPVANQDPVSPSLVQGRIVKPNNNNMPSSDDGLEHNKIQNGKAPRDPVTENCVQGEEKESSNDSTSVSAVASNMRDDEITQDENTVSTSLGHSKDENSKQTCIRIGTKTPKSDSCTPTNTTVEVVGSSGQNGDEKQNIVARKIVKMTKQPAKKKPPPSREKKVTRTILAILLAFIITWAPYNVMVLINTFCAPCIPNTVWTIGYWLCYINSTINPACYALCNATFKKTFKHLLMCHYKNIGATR

M3 muscarinic receptor = M3 muscarinic receptor (Homo sapiens, UniProt P20309); assay: [3H]NMS competition binding, M3 CHO membranes
M3 muscarinic receptor, sequence (P20309 whole entry): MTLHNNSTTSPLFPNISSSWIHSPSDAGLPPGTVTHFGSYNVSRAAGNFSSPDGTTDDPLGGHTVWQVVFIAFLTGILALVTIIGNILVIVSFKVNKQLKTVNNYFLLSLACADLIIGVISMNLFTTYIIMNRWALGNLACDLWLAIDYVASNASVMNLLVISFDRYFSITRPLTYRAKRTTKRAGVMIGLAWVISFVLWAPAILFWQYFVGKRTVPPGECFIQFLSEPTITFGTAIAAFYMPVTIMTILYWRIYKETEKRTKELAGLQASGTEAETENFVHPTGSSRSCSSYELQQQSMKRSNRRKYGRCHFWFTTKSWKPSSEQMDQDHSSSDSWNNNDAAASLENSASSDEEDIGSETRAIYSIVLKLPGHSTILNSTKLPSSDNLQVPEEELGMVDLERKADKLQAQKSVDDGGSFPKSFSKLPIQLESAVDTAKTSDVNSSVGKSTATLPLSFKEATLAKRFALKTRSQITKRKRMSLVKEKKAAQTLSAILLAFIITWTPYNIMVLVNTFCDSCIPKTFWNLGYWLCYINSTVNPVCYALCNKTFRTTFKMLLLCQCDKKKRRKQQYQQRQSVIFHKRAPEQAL

M2 muscarinic receptor [2] = target: T1, M2 muscarinic receptor; assay: inhibition of forskolin-stimulated cAMP, M2 CHO cells (M2Gi); assay type: cell-based; conditions: for Emax: CHO
M5 muscarinic receptor = target: T2, M5 muscarinic receptor (Homo sapiens, UniProt P08912); assay: accumulation of IPX, M5 CHO cells (M5Gq); assay type: cell-based
T2 sequence (P08912 1-532): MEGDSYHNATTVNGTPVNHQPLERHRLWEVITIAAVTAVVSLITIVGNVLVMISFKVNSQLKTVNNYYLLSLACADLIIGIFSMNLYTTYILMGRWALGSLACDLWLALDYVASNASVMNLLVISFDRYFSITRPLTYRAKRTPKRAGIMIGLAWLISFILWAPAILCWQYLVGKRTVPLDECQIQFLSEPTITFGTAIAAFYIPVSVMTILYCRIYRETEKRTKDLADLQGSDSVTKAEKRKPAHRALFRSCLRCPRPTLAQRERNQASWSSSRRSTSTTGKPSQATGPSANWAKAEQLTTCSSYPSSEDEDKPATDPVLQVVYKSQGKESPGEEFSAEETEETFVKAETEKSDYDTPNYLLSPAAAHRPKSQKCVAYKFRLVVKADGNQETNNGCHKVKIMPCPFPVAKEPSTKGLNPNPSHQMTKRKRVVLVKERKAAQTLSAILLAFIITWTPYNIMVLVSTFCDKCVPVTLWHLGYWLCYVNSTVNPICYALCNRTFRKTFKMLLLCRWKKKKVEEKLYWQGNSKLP

[3] = M2 (↓cAMP), preferential response, Table 7
[4] = M2 (↓cAMP), preferential response, Table 7, operational efficacy
[5] = M2 (↓cAMP), preferential response, relative to carbachol, Tables 2, 3, 7
[6] = M2 (↓cAMP), preferential response, to carbachol, Tables 2, 3, 7
[7] = M2Gi (↓cAMP), Table 8, relative to carbachol
[8] = M2Gi (↓cAMP), Table 8, to carbachol
[9] = M5 (↑IPX), preferential response, Table 7
[10] = M5 (↑IPX), preferential response, Table 7, operational efficacy
[11] = M5 (↑IPX), preferential response, relative to carbachol, Tables 2, 3, 7
[12] = M5 (↑IPX), preferential response, to carbachol, Tables 2, 3, 7
[13] = M5Gq (↑IPX), Table 8, relative to carbachol
[14] = pEC50, M5 (↑IPX), preferential response, Table 7
[15] = competition with 1 nM [3H]NMS, read-out: Inhibition constants (Ki) as negative logarithms, M2 (converted)
[16] = competition with 1 nM [3H]NMS, read-out: Inhibition constants (Ki) as negative logarithms, M3 (converted)
[17] = M2 (↓cAMP), preferential response, Table 7, operational model, read-out: pKA (converted)
[18] = M2 (↓cAMP), preferential response, Table 7, read-out: pEC50 (converted)
[19] = M5 (↑IPX), preferential response, Table 7, read-out: pEC50 (converted)
[20] = high-affinity fraction of binding to M2, read-out: high affinity binding
[21] = M2 (↓cAMP), preferential response, Table 7, read-out: E′MAX
[22] = M5 (↑IPX), preferential response, Table 7, operational model, read-out: pKA (converted)
[23] = M5Gq (↑IPX), Table 8, read-out: pEC50 (converted)

Structure (SMILES) | τ (M2 muscarinic receptor [2]; [4]) | RAi (M2 muscarinic receptor [2]; [5]) | Δlog(τ/KA) (M2 muscarinic receptor [2]; [6]) | E′MAX (M2 muscarinic receptor [2]; M2Gi (↓cAMP), Table 8) [% inhibition] | pEC50 (M2 muscarinic receptor [2]; M2Gi (↓cAMP), Table 8) | pKA (M2 muscarinic receptor [2]; M2Gi (↓cAMP), Table 8) | τ (M2 muscarinic receptor [2]; M2Gi (↓cAMP), Table 8) | RAi (M2 muscarinic receptor [2]; [7]) | Δlog(τ/KA) (M2 muscarinic receptor [2]; [8]) | E′MAX (M5 muscarinic receptor; [9]) [fold over basal] | τ (M5 muscarinic receptor; [10]) | RAi (M5 muscarinic receptor; [11]) | Δlog(τ/KA) (M5 muscarinic receptor; [12]) | E′MAX (M5 muscarinic receptor; M5Gq (↑IPX), Table 8) [fold over basal] | Ki (M2 muscarinic receptor [1]; [15]) [nM] | Ki (M3 muscarinic receptor; [16]) [µM] | Kd (M2 muscarinic receptor [2]; [17]) [nM] | EC50 (M2 muscarinic receptor [2]; [18]) [nM] | EC50 (M5 muscarinic receptor; [19]) [µM] | Emax (M2 muscarinic receptor [2]; [21]) [%] | further results
O=C1CCCN1CC#CCN1CCCC1 [oxotremorine, reference compound] | 0.96 ± 0.08 | 6.34 ± 0.15 | −0.81 ± 0.01 | 43 ± 1 | 8.24 ± 0.04 | 7.9 ± 0.1 | 1.0 ± 0.1 | 6.34 ± 0.15 | −0.81 ± 0.01 | 16 ± 1 | 2.60 ± 0.30 | 4.12 ± 0.26 | −0.62 ± 0.07 | 16 ± 1 |  |  |  |  |  |  | Ki (M2 muscarinic receptor [1]; Inhibition constants (KI) as negative logarithms, M2, high site, reference agonists, high affinity site): 12.6 nM; Ki (M2 muscarinic receptor [1]; Inhibition constants (KI) as negative logarithms, M2, low site, reference agonists, low affinity site): 575 nM; Ki (M3 muscarinic receptor; Inhibition constants (KI) as negative logarithms, M3, high site): 0.01 µM; Ki (M3 muscarinic receptor; Inhibition constants (KI) as negative logarithms, M3, low site): 0.447 µM; EC50 (M2 muscarinic receptor [2]): 5.75 nM; Kd (M2 muscarinic receptor [2]): 12.6 nM; E′MAX (M2 muscarinic receptor [2]; [3]): 43 ± 1 % inhibition; Kd (M5 muscarinic receptor): 0.251 µM; pKA (M5 muscarinic receptor; M5Gq (↑IPX), Table 8): 6.6 ± 0.1; τ (M5 muscarinic receptor; M5Gq (↑IPX), Table 8): 2.2 ± 0.3; RAi (M5 muscarinic receptor; [13]): 4.37 ± 0.29; Δlog(τ/KA) (M5 muscarinic receptor; M5Gq (↑IPX), Table 8, to carbachol): −0.64; EC50 (M5 muscarinic receptor; [14]): 0.0708 µM; EC50 (M5 muscarinic receptor; pEC50, M5Gq (↑IPX), Table 8): 0.0741 µM
C[N+]1(Cc2ccc(Br)s2)CC=CCC1.[I-] (stereo not drawn) [Compound 7C, 1-[(5-bromothiophen-2-yl)methyl]-1-methyl-1,2,3,6-tetrahydropyridin-1-ium iodide] | 0.76 ± 0.08 | 0.018 ± 0.002 | 1.69 ± 0.09 |  |  |  |  |  |  | 1.19 ± 0.04 |  | 0.0013 ± 0.0005 |  |  | 933 | 2.04 | 3160 | 1620 | 3.16 |  | Emax (M2 muscarinic receptor [2]): 38 ± 2%
Cc1ccc(CN2CC=CCC2)s1.Cl [Compound 6B, 1-[(5-methylthiophen-2-yl)methyl]-1,2,3,6-tetrahydropyridin-1-ium chloride] | 1.15 ± 0.08 | 0.0047 ± 0.0004 | 2.35 ± 0.16 |  |  |  |  |  |  | 1.7 ± 0.1 | 0.04 ± 0.01 | 0.0009 ± 0.0005 | 3.04 ± 0.66 |  | 10200 | 22.9 | 20000 | 9120 | 15.1 | 47 ± 2 | Ki (M2 muscarinic receptor [1]; [20]): ~30 nM; Kd (M5 muscarinic receptor; [22]): 15.8 µM
C[N+](C)(C)CCOC(N)=O [carbachol, reference compound] |  |  | 0 | 44 ± 1 |  |  |  |  | 0 |  |  |  |  |  |  |  |  |  |  |  | E′MAX (M2 muscarinic receptor [2]; [3]): 44 ± 1 % inhibition
C[N+]1(Cc2ccc(Cl)s2)CC=CCC1.[I-] (stereo not drawn) [Compound 7D, 1-[(5-chlorothiophen-2-yl)methyl]-1-methyl-1,2,3,6-tetrahydropyridin-1-ium iodide] | 0.83 ± 0.08 | 0.008 ± 0.001 | 2.05 ± 0.19 |  |  |  |  |  |  | 3.5 ± 0.2 | 0.14 ± 0.01 | 0.0049 ± 0.0006 | 2.31 ± 0.50 |  |  | 3.39 |  |  |  |  | Ki (M2 muscarinic receptor [1]; Inhibition constants (Ki) as negative logarithms, M2, competition with 1 nM [3H]NMS): 692 nM; Ki (M2 muscarinic receptor [1]; Inhibition constants Ki, at M2 receptors): 700 nM; EC50 (M2 muscarinic receptor [2]): 3890 nM; Kd (M2 muscarinic receptor [2]): 6310 nM; Emax (M2 muscarinic receptor [2]): 40 ± 2%; Kd (M5 muscarinic receptor): 12.6 µM; EC50 (M5 muscarinic receptor; [14]): 9.77 µM
C1=CCN(Cc2cccs2)CC1.Cl [Compound 6A, 1-[(thiophen-2-yl)methyl]-1,2,3,6-tetrahydropyridin-1-ium chloride] | 1.32 ± 0.08 |  |  | 50 ± 2 | 6.14 ± 0.05 | 5.8 ± 0.1 | 1.3 ± 0.1 | 0.067 ± 0.007 | 1.22 ± 0.08 | 1.19 ± 0.04 |  | 0.0025 ± 0.0008 |  | 1.16 ± 0.04 | 42700 | 37.2 | 1580 | 724 | 1.58 | 50 ± 2 | RAi (M5 muscarinic receptor; [13]): 0.0023 ± 0.0007; EC50 (M5 muscarinic receptor; [23]): 1.58 µM
Cc1ccc(C[N+]2(C)CC=CCC2)s1.[I-] (stereo not drawn) [Compound 7B, 1-methyl-1-[(5-methylthiophen-2-yl)methyl]-1,2,3,6-tetrahydropyridin-1-ium iodide] | 0.69 ± 0.07 | 0.029 ± 0.002 | 1.48 ± 0.15 |  |  |  |  |  |  | 1.47 ± 0.07 | 0.02 ± 0.01 | 0.0021 ± 0.0009 | 2.67 ± 0.41 |  | 2290 | 5.25 | 1580 | 933 | 4.37 | 36 ± 1 | Ki (M2 muscarinic receptor [1]; [20]): ~30 nM; Kd (M5 muscarinic receptor; [22]): 5.01 µM
Brc1ccc(CN2CC=CCC2)s1.Cl [Compound 6C, 1-[(5-bromothiophen-2-yl)methyl]-1,2,3,6-tetrahydropyridin-1-ium chloride] | 0.38 ± 0.04 | 0.0070 ± 0.0006 | 2.02 ± 0.22 |  |  |  |  |  |  | 1.36 ± 0.08 | 0.02 ± 0.01 | 0.0009 ± 0.0003 | 3.03 ± 0.95 |  | 10000 | 14.1 | 3160 | 2190 | 7.59 | 24 ± 1 | Kd (M5 muscarinic receptor; [22]): 7.94 µM
C[N+]1(Cc2cccs2)CC=CCC1.[I-] (stereo not drawn) [Compound 7A, 1-methyl-1-[(thiophen-2-yl)methyl]-1,2,3,6-tetrahydropyridin-1-ium iodide] | 1.51 ± 0.15 |  |  | 53 ± 2 | 6.41 ± 0.05 | 6.0 ± 0.1 | 1.5 ± 0.2 | 0.140 ± 0.008 | 0.93 ± 0.09 | 1.28 ± 0.05 |  | 0.0007 ± 0.0002 and 0.0007 ± 0.0001 |  | 1.26 ± 0.05 | 7940 | 7.94 | 1000 | 389 | 7.94 | 53 ± 2 | RAi (M5 muscarinic receptor; [13]): 0.0006 ± 0.0002; EC50 (M5 muscarinic receptor; [23]): 7.94 µM
